Like-named read-outs stand apart in the source and are kept apart here.
What was measured:
[1] = test system: KRAS G12D mutation-positive human bile duct cancer cell line SNU-869; test: Cell growth inhibitory activity of combined treatment, ultra-low adsorption plate, CellTiter-Glo 3D, 5 days; assay type: cell-based; settings: 120 h, SNU-869, MRTX1133 alone
Experimental: (§1) With different KRAS mutation-positive cell lines, combined treatment of the compound represented by formula (I) and a KRAS inhibitor was evaluated on growth inhibitory activity. […] Cells were seeded in 96-well flat-bottomed ultra-low adsorption plate (manufactured by Corning Incorporated) at 5000 cells/well, and cultured at 5% CO2 and 37° C. for 1 day. […] The drug solutions were prepared by diluting their DMSO stocks with medium to specific concentrations, and added in such a manner that the volume of the culture medium reached 100 μL/well after addition of the drugs. After the culture for 5 days, 30 μL of CellTiter-Glo 3D Reagent (manufactured by Promega Corporation) was added to each well and reacted under shading for 30 minutes, and 50-μL portions were then transferred into a separate white 96-well plate (manufactured by Greiner Bio-One International GmbH), and the emission intensity of luciferase was measured with a plate reader (manufactured by PerkinElmer, Inc.). The measurement values were defined as the relative cell counts.

[2] = test system: KRAS G12D mutation-positive human endometrial cancer cell line HEC-1-B; test: as above; assay type: cell-based; settings: 120 h, MRTX1133 alone
Experimental: as §1

[3] = test system: xenograft model with the KRAS G12C mutation-positive human non-small cell lung cancer cell line NCI-H358; test: Antitumor effect of combined administration with adagrasib in xenograft model (tumor volume); assay type: in vivo, nude mice; parameters: unit not given beside the values; settings: adagrasib 10 mg/kg, once per day, oral
Experimental: Experimental conditions for drug efficacy test using mice with different cell lines (suspension media, cell counts for transplantation, lineages of mice, administered drugs, days of initiation of administration, test periods) were shown in Table 5. Each cell line was prepared with suspension medium to reach an intended cell count for transplantation, and the resulting suspension was subcutaneously transplanted into nude mice (6-week-old, female) at the body flank.
The long diameter and short diameter of tumors generated in each mouse were measured with a Digimatic Caliper (manufactured by Mitutoyo Corp.) twice a week from day 1 as the day of initiation of administration to the final day of the test.
The tumor volume was calculated by the following formula.
Numbers in Table 6 each indicate mean±standard error (SEM) of tumor volume. In the test carried out, six mice were used per group.

[4] = test system: xenograft model with the KRAS G12C mutation-positive human non-small cell lung cancer cell line NCI-H358; settings: sotorasib 100 mg/kg, once per day, oral
Experimental: Matrigel/HBSS (50:50) was added to a KRAS G12C mutation-positive human non-small cell lung cancer cell line, NCI-358 cells, to prepare a cell suspension of 8×10^6 cells. The cell suspension was subcutaneously transplanted into nude mice (CAnN.Cg-Foxn1 nu/CrlCrlj, from Charles River Laboratories Japan, Inc.) at the body flank. Six mice were used per group. The date of transplantation was defined as day 1. […] No drug was administered to the control group.
The date of the initiation of administration was defined as day 1. On days 4, 8, 11, and 15, the long diameter and short diameter of tumors generated in each mouse were measured with a Digimatic Caliper (manufactured by Mitutoyo Corp.).

[5] = test system: xenograft model with the KRAS G12C mutation-positive human colorectal cancer cell line SW837; settings: sotorasib 100 mg/kg, once per day, oral
[6] = test system: xenograft model with the KRAS G12C mutation-positive human bladder cancer cell line UM-UC-3; settings: UM-UC-3 xenograft, E7386 25 mg/kg, sotorasib 100 mg/kg, once per day, oral

SMILES | GI50 [1] [nM] | GI50 [2] [nM] | tumor volume, mean ± SEM ([3]; Day 4, E7386 25 mg/kg) | tumor volume, mean ± SEM ([3]; Day 8, E7386 25 mg/kg) | tumor volume, mean ± SEM ([3]; Day 11, E7386 25 mg/kg) | tumor volume, mean ± SEM ([3]; Day 15, E7386 25 mg/kg) | tumor volume, mean ± SEM ([3]; Day 18, E7386 25 mg/kg) | tumor volume, mean ± SEM ([4]; Day 11, E7386 25 mg/kg) | tumor volume, mean ± SEM ([4]; Day 15, E7386 25 mg/kg) | tumor volume, mean ± SEM ([5]; Day 5, E7386 25 mg/kg) | tumor volume, mean ± SEM ([5]; Day 12, E7386 25 mg/kg) | tumor volume, mean ± SEM ([6]; Day 5) | tumor volume, mean ± SEM ([6]; Day 12) | tumor volume, mean ± SEM ([6]; Day 15)
C#Cc1c(F)ccc2cc(O)cc(-c3ncc4c(N5CC6CCC(C5)N6)nc(OC[C@@]56CCCN5C[C@@H](F)C6)nc4c3F)c12 [MRTX1133, 4-(4-((1R,5S)-3,8-diazabicyclo[3.2.1]octan-3-yl)-8-fluoro-2-(((2R,7aS)-2-fluorohexahydro-1H-pyrrolidin-7a-yl)methoxy)pyrodo[4,3-d]pyrimidin-7-yl)-5-et hynyl-6-fluoronaphthalen-2-ol] | 1.79 | 5.37 |  |  |  |  |  |  |  |  |  |  |  | 
C=CCN1CC(=O)N2[C@@H](Cc3ccc(O)cc3F)C(=O)N(Cc3cccc(N4CC(N5CCN(CC)CC5)C4)n3)C[C@@H]2N1C(=O)NCc1ccccc1 [E7386, (6S,9aS)-N-benzyl-8-((6-(3-(4-ethylpiperazin-1-yl)azetidin-1-yl)pyridin-2-yl)methyl)-6-((2-fluoro-4-hydroxyphenyl)methyl)-4,7-dioxo-2-(prop-2-en-1-yl)-octahydro-1H-pyrazino[2,1-c][1,2,4]triazine-1-carboxamide] |  |  | 251.2 ± 8.1 | 327.4 ± 24.9 | 445.0 ± 26.3 | 579.1 ± 45.1 | 729.2 ± 56.7 | 519.9 ± 34.1 | 714.4 ± 55.5 | 221.5 ± 9.5 | 340.9 ± 17.5 | 337.4 ± 20.9 | 1487.0 ± 59.7 | 2526.8 ± 123.1
